# Data: paper PMC9863987, “Identification of Aryl Polyamines Derivatives as Anti-Trypanosoma cruzi Agents Targeting Iron Superoxide Dismutase” (Pharmaceutics, 2022)
# Tests used:
# [1] = test system: T. cruzi Arequipa strain epimastigotes; test: Screening against extracellular epimastigotes, Arequipa strain (resazurin); format: cell-based, Trypanosoma cruzi
# Method: Three different T. cruzi […] strains—MHOM/Pe/2011/Arequipa, discrete typing unit (DTU) V [26]; IRHOD/CO/2008/SN3, DTU I [27]; TINF/CH/1956/Tulahuen, DTU VI [26]—were grown at 28 °C in Gibco® RPMI 1640 Medium supplemented as previously reported, and used for in vitro screening.
# Trypanocidal activity against epimastigotes was tested as previously reported. In brief, 5 × 10^5 mL^−1 epimastigotes culture medium were treated by adding the compounds in serial dilutions from 100 to 0.2 µM in 96-well plates (200 µL·well^−1) for 48 h. BZN and untreated growth control were also included in triplicate. Later, 20 μL of resazurin sodium salt (Sigma-Aldrich, St. Louis, MO, USA) was added, and the plates were incubated for another 24 h. Finally, the absorbance of the wells was measured at 570/600 nm and related to the control. The trypanocidal activity was expressed as the IC50 (inhibitory concentration 50) value using GraphPad Prism 6 software.
# [2] = test system: Vero cells; test: Cytotoxicity test on mammalian Vero cells (resazurin); format: cell-based; conditions: Chlorocebus sabaeus, 48 h treatment + 24 h resazurin, mean of three ± SD, read-out: Toxicity IC50 Vero Cell
# Method: Cytotoxicity against mammalian Vero cells (EACC No. 84113001) was tested as previously reported. In brief, 1.25 × 10^4 Vero cells·mL^−1, cultured at 37 °C, were treated by adding the compounds in serial dilutions from 400 to 1 µM in 96-well plates (200 µL·well^−1) for 48 h. BZN and untreated controls were also included in triplicate. Later, 20 μL of resazurin sodium salt (Sigma-Aldrich) was added, and the plates were incubated for another 24 h. Finally, cell viability was determined following the same procedure as described to assess the trypanocidal activity in the epimastigotes.
# [3] = test system: T. cruzi SN3 strain amastigotes; test: Screening against intracellular amastigotes in Vero cells, SN3 strain (Giemsa counting); format: cell-based, Trypanosoma cruzi
# Method: TINF/CH/1956/Tulahuen, DTU VI [26]—were grown at 28 °C in Gibco® RPMI 1640 Medium supplemented as previously reported, and used for in vitro screening. Trypanocidal activity against amastigotes was tested as previously reported. In brief, bloodstream trypomastigotes (BTs), obtained by cardiac puncture from infected BALB/c mice, were used to infect 1 × 10^4 Vero cells·well^−1 in 24-well plates with rounded coverslips at a multiplicity of infection (MOI) ratio of 10:1. After 24 h of infection, non-internalized trypomastigotes were washed and the infected cells were treated by adding the compounds in serial dilutions from 50 to 0.5 µM in […] for 72 h. BZN and untreated growth controls were also included in triplicate. Later, the number of amastigotes and infected cells were determined in Giemsa stained preparations by analysing 500 host cells randomly distributed in microscopic fields. The trypanocidal activity was expressed as the IC50 using GraphPad Prism 6 software (version 6.07).
# [4] = test system: T. cruzi Arequipa strain trypomastigotes; test: Screening against bloodstream trypomastigotes, Arequipa strain (resazurin); format: cell-based, Trypanosoma cruzi
# [5] = test system: T. cruzi SN3 strain trypomastigotes; test: Screening against bloodstream trypomastigotes, SN3 strain (resazurin); format: cell-based, Trypanosoma cruzi
# [6] = Clinical analysis of heart, kidney and liver markers in serum of treated mice; format: in vivo, BALB/c mice; conditions: n = 3
# Method: Infection was carried out by intraperitoneal inoculation of 5 × 10^5 BTs of T. cruzi Arequipa strain per mouse in 0.2 mL PBS [26]. The infection was monitored and on the 10th day post-infection (dpi), when BTs were visible in the bloodstream, the infection was confirmed.
# Mice were divided into four groups (n = 3 per group): 0, negative control group (uninfected and untreated mice); I, positive control group (infected and untreated mice); II, BZN group (mice infected and treated with BZN); III, 15 group (mice infected and treated with 15).
# The treatment for mice treated in the acute and chronic CD began when the infection was confirmed (10th dpi) and was stablished that the animals had entered the chronic CD (75th dpi), respectively (Scheme 1). Compound 15 and BZN were orally administered for 5 consecutive days at a dose of 20 mg·Kg^−1·day^−1.
# Blood samples were collected in several dpi (Scheme 1) and processed according the method previously reported to obtain serum. Serum samples were then aliquoted to ELISA test and clinical analysis.
# Heart, kidney and liver markers were measured from blood in several dpi (Scheme 1) with Cromakit® as previously reported. Mean and standard deviations were calculated using the levels measured for different populations of sera (n = 15, n = 3), and the confidence interval were also calculated based on a confidence level of 95% (100 × (1 − α) = 100 × (1 − 0.05)).
# [7] = IC50 Vero cells/IC50 trypomastigotes
# [8] = Trypanosoma cruzi, trypomastigotes, 24 h + 4 h resazurin, mean of three ± SD
# [9] = treatment in acute phase, 16th dpi (2 days after treatment)
# [10] = treatment in acute phase, necropsy day
# [11] = treatment in chronic phase, 81th dpi (2 days after treatment)
# [12] = treatment in chronic phase, necropsy day
compound,measurement,setting,value
c1cc2nc(c1)CNCCN(CCNCc1ccc3ccc4ccc(CNCCN5CCNCc6cccc(n6)CNCC5)nc4c3n1)CCNC2 [Compound 15],Selectivity Index T. cruzi Arequipa Strain E,[1]; IC50 Vero cells/IC50 epimastigotes,101.7
same,IC50,"[1]; Trypanosoma cruzi, epimastigotes, 48 h treatment + 24 h resazurin, mean of three ± SD, read-out: Activity IC50 T. cruzi Arequipa Strain E",6.4 ± 0.6 µM
same,CC50,[2],655 ± 51.9 µM
same,Selectivity Index T. cruzi SN3 Strain A,[3]; IC50 Vero cells/IC50 amastigotes,58.0
same,IC50,"[3]; Trypanosoma cruzi, amastigotes in Vero cells, 72 h, mean of three ± SD",11.3 ± 0.9 µM
same,Selectivity Index T. cruzi Arequipa Strain T,[4]; [7],409.3
same,IC50,[4]; [8],1.6 ± 0.1 µM
same,Selectivity Index T. cruzi SN3 Strain T,[5]; [7],62.0
same,IC50,[5]; [8],10.6 ± 0.9 µM
same,"ALP, variation over the range",[6]; [9],= (variation ≤ 10%)
same,"ALT/GPT, variation over the range",[6]; [9],++ (20-30% increase/decrease over the range)
same,"AST/GOT, variation over the range",[6]; [9],++ (20-30% increase/decrease over the range)
same,"CK-MB, variation over the range",[6]; [9],-- (20-30% increase/decrease over the range)
same,"LDH, variation over the range",[6]; [9],= (variation ≤ 10%)
same,"Total bilirubin, variation over the range",[6]; [9],+ (10-20% increase/decrease over the range)
same,"Urea, variation over the range",[6]; [9],- (10-20% increase/decrease over the range)
same,"Uric acid, variation over the range",[6]; [9],-- (20-30% increase/decrease over the range)
same,"ALP, variation over the range",[6]; [10],= (variation ≤ 10%)
same,"ALT/GPT, variation over the range",[6]; [10],+ (10-20% increase/decrease over the range)
same,"AST/GOT, variation over the range",[6]; [10],+ (10-20% increase/decrease over the range)
same,"CK-MB, variation over the range",[6]; [10],= (variation ≤ 10%)
same,"LDH, variation over the range",[6]; [10],= (variation ≤ 10%)
same,"Total bilirubin, variation over the range",[6]; [10],+ (10-20% increase/decrease over the range)
same,"Urea, variation over the range",[6]; [10],= (variation ≤ 10%)
same,"Uric acid, variation over the range",[6]; [10],= (variation ≤ 10%)
same,"ALP, variation over the range",[6]; [11],= (variation ≤ 10%)
same,"ALT/GPT, variation over the range",[6]; [11],+ (10-20% increase/decrease over the range)
same,"AST/GOT, variation over the range",[6]; [11],+ (10-20% increase/decrease over the range)
same,"CK-MB, variation over the range",[6]; [11],- (10-20% increase/decrease over the range)
same,"LDH, variation over the range",[6]; [11],= (variation ≤ 10%)
same,"Total bilirubin, variation over the range",[6]; [11],++ (20-30% increase/decrease over the range)
same,"Urea, variation over the range",[6]; [11],-- (20-30% increase/decrease over the range)
same,"Uric acid, variation over the range",[6]; [11],--- (30-40% increase/decrease over the range)
same,"ALP, variation over the range",[6]; [12],= (variation ≤ 10%)
same,"ALT/GPT, variation over the range",[6]; [12],= (variation ≤ 10%)
same,"AST/GOT, variation over the range",[6]; [12],= (variation ≤ 10%)
same,"CK-MB, variation over the range",[6]; [12],= (variation ≤ 10%)
same,"LDH, variation over the range",[6]; [12],= (variation ≤ 10%)
same,"Total bilirubin, variation over the range",[6]; [12],+ (10-20% increase/decrease over the range)
same,"Urea, variation over the range",[6]; [12],- (10-20% increase/decrease over the range)
same,"Uric acid, variation over the range",[6]; [12],- (10-20% increase/decrease over the range)
